# Laboratory results published in patent US20220125959A1, “PROSTATE-SPECIFIC MEMBRANE ANTIGEN (PSMA) INHIBITORS AS DIAGNOSTIC AND RADIONUCLIDE THERAPEUTIC AGENTS” (FIVE ELEVEN PHARMA INC., priority 2019, published 2022).
# Values joined by “and” are separate entries in the source; they are usually repeats but may differ in a detail not shown here. Identical values can stand only once.
# Legend:
# [1] = test system: PSMA-positive cell line, PIP PC3; experiment: In vitro cell uptake, PIP PC3 cells; assay type: cell-based
# Protocol: To determine the cell uptakes of the [^177Lu] labelled ligands, 5×10^5 cells/well were grown in 12-well plates in 1 mL of medium for 48 h. The cells were washed twice with PBS, and 900 μL fresh media were added. […] All samples were prepared in triplicate. Following the incubation at 37° C., cells were washed twice to remove unbound activity and afterwards lysed in 1 mL of 0.5 M NaOH. Activity was measured in a gamma counter. Aliquots of the solution added to the cells were also measured for the calculation of the cellular uptake as % ID.
# [2] = test system: PSMA-negative cell line, PC3; experiment: In vitro cell uptake, PC3 cells; assay type: cell-based; settings: PC3 (do not express PSMA), 60 min
# Protocol: To determine the cell uptakes of the [^177Lu] labelled ligands, 5×10^5 cells/well were grown in 12-well plates in 1 mL of medium for 48 h. The cells were washed twice with PBS, and 900 μL fresh media were added. Radiolabelled ligand was added and the PSMA-inhibitor (2-PMPA) was applied in a final concentration of 10 μM to determine unspecific binding. All samples were prepared in triplicate. Following the incubation at 37° C., cells were washed twice to remove unbound activity and afterwards lysed in 1 mL of 0.5 M NaOH. Activity was measured in a gamma counter. Aliquots of the solution added to the cells were also measured for the calculation of the cellular uptake as % ID.
# [3] = test system: PC3-PIP (PSMA positive) and PC-3 tumors (PSMA negative); experiment: Biodistribution of 177Lu labeled compounds 4 and 7 in tumor bearing nude mice; assay type: in vivo, CD-1 male nude mice
# Protocol: (§1) ^177Lu labeling: To 10 μg ligand (1 mg/mL DMSO) were added 15 μL of 2.0 N NaOAc, 400 μL 0.05 N HCl, and 20 μL ^177Lu-solution (780 μCi (Capintec setting 450 (reading×10)). The reaction was heated with a heating block at 95° C. for 1 hour in a 3 mL closed vial. After cooling, the sample was analyzed by HPLC (HPLC: Eclipse XDB-C18 150×4.6 mm, gradient, 1 mL/min; A: 0.1% TFA in water; B: 0.1% TFA in ACN: 0-4 min A/B 85/15%; 4-11 min: from 85/15 to 30/70%; 11-14 min: from 30/70% to 85/15%). Radiochemical purity of [^177Lu]4 (FIG. 2) and [^177Lu]7 was >98% and injected doses were stable at 48 hr after formulation.
# (§2) For iv injection 150 μL of labeled solution was diluted with saline to 3.75mL. Mice were injected with 150 μL of formulated dose. Injected radioactivity was 100 μCi and PSMA ligand amount was constant at 0.72 nmole/mouse.
# Biodistribution of [^68Ga]4, [^177Lu]4 and [^177Lu]7 was determined in nude mice bearing PIP PC3 (PSMA positive) and PC3 (PSMA negative) tumors on the left and right shoulder, respectively, over a period of 192 h (Table 3a, 3b and 3c). […] The uptake in PC3 tumors (PSMA negative) of both ligands, [^177Lu]4 and [^177Lu]7, was clearly much lower than those of PC-3 PIP tumors (PSMA positive).
# [4] = Stability of injected doses after formulation; assay type: physicochemical; settings: at 48 hr after formulation
# Protocol: ^68Ga labeling: To 15 nmole ligand 4 (1 mg/mL DMSO) were added 20 μL of 2.0 N NaOAc, 500 μL ^68Ga-solution (2.25 mCi). The reaction was heated in a heating block at 90° C. for 10 minutes in a 3 mL closed vial. After cooling, the sample was analyzed by HPLC (HPLC: Eclise XDB C18 150×4.6 mm, gradient, 2 mL/min; A: 0.1% TFA in water; B: 0.1% TFA in ACN: 0-2 min 100% A; 2-4 min: from 0% to 100% B; 4-9 min: 100% B; 9-10 min: from 100% to 0% B). Radiochemical purity of [^68Ga]4 was >99% RCP (FIG. 1) and injected doses were stable at 2 hr after formulation.
# as §1, §2
smiles,measurement,setting,value
O=C(O)CC[C@H](NC(=O)N[C@@H](CCCCNC(=O)[C@H](Cc1ccccc1)NC(=O)COc1ccc(C[C@H](NC(=O)CNC(=O)CCC(C(=O)O)N2CCN(CC(=O)O)CCN(C(CCC(=O)NCCOCCOCCNC(=O)CCCc3ccc(I)cc3)C(=O)O)CCN(CC(=O)O)CC2)C(=O)O)cc1)C(=O)O)C(=O)O.[177Lu] (stereo partly shown) [[^177Lu]7],In vitro cell uptake,"[1]; PIP PC3, 5 min",5.0 % ID per 5 × 10^5 cells
same,In vitro cell uptake,"[1]; PIP PC3, 15 min",7.8 % ID per 5 × 10^5 cells
same,In vitro cell uptake,"[1]; PIP PC3, 30 min",10.1 % ID per 5 × 10^5 cells
same,In vitro cell uptake,"[1]; PIP PC3, 60 min",11.4 % ID per 5 × 10^5 cells
same,In vitro cell uptake,"[1]; PIP PC3, 60 min, with PSMA inhibitor (2-PMPA, 2 uM)",1.3 % ID per 5 × 10^5 cells
same,In vitro cell uptake,"[1]; PIP PC3, 120 min",11.9 % ID per 5 × 10^5 cells
same,In vitro cell uptake,[2],0.7 % ID per 5 × 10^5 cells
same,Biodistribution: Blood,[3]; 1 hr,13.20 ± 3.17 % dose/g
same,Biodistribution: Bone,[3]; 1 hr,1.78 ± 0.97 % dose/g
same,Biodistribution: Brain,[3]; 1 hr,0.35 ± 0.04 % dose/g
same,Biodistribution: Heart,[3]; 1 hr,3.79 ± 0.67 % dose/g
same,Biodistribution: Intestine,[3]; 1 hr,1.89 ± 0.18 % dose/g
same,Biodistribution: Kidney,[3]; 1 hr,37.38 ± 4.08 % dose/g
same,Biodistribution: Liver,[3]; 1 hr,2.63 ± 0.69 % dose/g
same,Biodistribution: Lung,[3]; 1 hr,5.89 ± 0.53 % dose/g
same,Biodistribution: Muscle,[3]; 1 hr,1.88 ± 0.27 % dose/g
same,Biodistribution: PC3 tumor,[3]; 1 hr,5.26 ± 1.63 % dose/g
same,Biodistribution: PIP PC3 tumor,[3]; 1 hr,12.51 ± 0.94 % dose/g
same,Biodistribution: Pancreas,[3]; 1 hr,1.71 ± 0.40 % dose/g
same,Biodistribution: Skin,[3]; 1 hr,5.18 ± 1.59 % dose/g
same,Biodistribution: Spleen,[3]; 1 hr,2.87 ± 0.82 % dose/g
same,Biodistribution: Stomach,[3]; 1 hr,1.57 ± 0.39 % dose/g
same,Biodistribution: Blood,[3]; 4 hrs,12.06 % dose/g and 12.06 ± 2.26 % dose/g
same,Biodistribution: Bone,[3]; 4 hrs,2.05 ± 0.89 % dose/g
same,Biodistribution: Brain,[3]; 4 hrs,0.37 ± 0.08 % dose/g
same,Biodistribution: Heart,[3]; 4 hrs,3.96 ± 0.63 % dose/g
same,Biodistribution: Intestine,[3]; 4 hrs,2.97 ± 1.71 % dose/g
same,Biodistribution: Kidney,[3]; 4 hrs,60.07 ± 2.41 % dose/g
same,Biodistribution: Liver,[3]; 4 hrs,2.92 ± 0.85 % dose/g
same,Biodistribution: Lung,[3]; 4 hrs,6.07 ± 0.66 % dose/g
same,Biodistribution: Muscle,[3]; 4 hrs,1.55 ± 0.84 % dose/g
same,Biodistribution: PC3 tumor,[3]; 4 hrs,5.17 ± 1.02 % dose/g
same,Biodistribution: PIP PC3 tumor,[3]; 4 hrs,35.34 ± 12.11 % dose/g
same,Biodistribution: Pancreas,[3]; 4 hrs,2.08 ± 0.82 % dose/g
same,Biodistribution: Skin,[3]; 4 hrs,5.85 ± 2.04 % dose/g
same,Biodistribution: Spleen,[3]; 4 hrs,6.16 ± 2.81 % dose/g
same,Biodistribution: Stomach,[3]; 4 hrs,1.86 ± 1.12 % dose/g
same,Biodistribution: Blood,[3]; 24 hrs (1 day),1.79 ± 0.98 % dose/g
same,Biodistribution: Bone,[3]; 24 hrs (1 day),0.33 ± 0.14 % dose/g
same,Biodistribution: Brain,[3]; 24 hrs (1 day),0.08 ± 0.04 % dose/g
same,Biodistribution: Heart,[3]; 24 hrs (1 day),0.73 ± 0.42 % dose/g
same,Biodistribution: Intestine,[3]; 24 hrs (1 day),0.41 ± 0.24 % dose/g
same,Biodistribution: Kidney,[3]; 24 hrs (1 day),18.51 ± 7.79 % dose/g
same,Biodistribution: Liver,[3]; 24 hrs (1 day),0.57 ± 0.27 % dose/g
same,Biodistribution: Lung,[3]; 24 hrs (1 day),1.33 ± 0.85 % dose/g
same,Biodistribution: Muscle,[3]; 24 hrs (1 day),0.36 ± 0.24 % dose/g
same,Biodistribution: PC3 tumor,[3]; 24 hrs (1 day),2.15 ± 0.69 % dose/g
same,Biodistribution: PIP PC3 tumor,[3]; 24 hrs (1 day),35.34±12.11 % dose/g and 34.36 ± 6.87 % dose/g
same,Biodistribution: Pancreas,[3]; 24 hrs (1 day),0.45 ± 0.30 % dose/g
same,Biodistribution: Skin,[3]; 24 hrs (1 day),1.37 ± 0.63 % dose/g
same,Biodistribution: Spleen,[3]; 24 hrs (1 day),0.75 ± 0.17 % dose/g
same,Biodistribution: Stomach,[3]; 24 hrs (1 day),0.36 ± 0.23 % dose/g
same,Biodistribution: Blood,[3]; 48 hrs (2 days),0.84 ± 0.25 % dose/g
same,Biodistribution: Bone,[3]; 48 hrs (2 days),0.19 ± 0.03 % dose/g
same,Biodistribution: Brain,[3]; 48 hrs (2 days),0.06 ± 0.01 % dose/g
same,Biodistribution: Heart,[3]; 48 hrs (2 days),0.59 ± 0.21 % dose/g
same,Biodistribution: Intestine,[3]; 48 hrs (2 days),0.23 ± 0.07 % dose/g
same,Biodistribution: Kidney,[3]; 48 hrs (2 days),16.13 ± 6.19 % dose/g
same,Biodistribution: Liver,[3]; 48 hrs (2 days),0.42 ± 0.08 % dose/g
same,Biodistribution: Lung,[3]; 48 hrs (2 days),0.93 ± 0.26 % dose/g
same,Biodistribution: Muscle,[3]; 48 hrs (2 days),0.22 ± 0.07 % dose/g
same,Biodistribution: PC3 tumor,[3]; 48 hrs (2 days),1.77 ± 0.55 % dose/g
same,Biodistribution: PIP PC3 tumor,[3]; 48 hrs (2 days),41.80 ± 10.71 % dose/g
same,Biodistribution: Pancreas,[3]; 48 hrs (2 days),0.39 ± 0.18 % dose/g
same,Biodistribution: Skin,[3]; 48 hrs (2 days),0.63 ± 0.03 % dose/g
same,Biodistribution: Spleen,[3]; 48 hrs (2 days),1.27 ± 1.12 % dose/g
same,Biodistribution: Stomach,[3]; 48 hrs (2 days),0.18 ± 0.02 % dose/g
same,Biodistribution: Blood,[3]; 96 hrs (4 days),0.11 ± 0.10 % dose/g
same,Biodistribution: Bone,[3]; 96 hrs (4 days),0.11 ± 0.01 % dose/g
same,Biodistribution: Brain,[3]; 96 hrs (4 days),0.02 ± 0.01 % dose/g
same,Biodistribution: Heart,[3]; 96 hrs (4 days),0.30 ± 0.23 % dose/g
same,Biodistribution: Intestine,[3]; 96 hrs (4 days),0.19 ± 0.18 % dose/g
same,Biodistribution: Kidney,[3]; 96 hrs (4 days),4.28 ± 2.61 % dose/g
same,Biodistribution: Liver,[3]; 96 hrs (4 days),0.22 ± 0.09 % dose/g
same,Biodistribution: Lung,[3]; 96 hrs (4 days),0.31 ± 0.22 % dose/g
same,Biodistribution: Muscle,[3]; 96 hrs (4 days),0.18 ± 0.12 % dose/g
same,Biodistribution: PC3 tumor,[3]; 96 hrs (4 days),0.97 ± 0.56 % dose/g
same,Biodistribution: PIP PC3 tumor,[3]; 96 hrs (4 days),24.23 ± 13.09 % dose/g
same,Biodistribution: Pancreas,[3]; 96 hrs (4 days),0.09 ± 0.06 % dose/g
same,Biodistribution: Skin,[3]; 96 hrs (4 days),0.46 ± 0.22 % dose/g
same,Biodistribution: Spleen,[3]; 96 hrs (4 days),0.52 ± 0.30 % dose/g
same,Biodistribution: Stomach,[3]; 96 hrs (4 days),0.09 ± 0.06 % dose/g
same,Biodistribution: Blood,[3]; 192 hrs (8 days),0.01 ± 0.00 % dose/g
same,Biodistribution: Bone,[3]; 192 hrs (8 days),0.09 ± 0.01 % dose/g
same,Biodistribution: Brain,[3]; 192 hrs (8 days),0.01 ± 0.00 % dose/g
same,Biodistribution: Heart,[3]; 192 hrs (8 days),0.07 ± 0.01 % dose/g
same,Biodistribution: Intestine,[3]; 192 hrs (8 days),0.12 ± 0.05 % dose/g
same,Biodistribution: Kidney,[3]; 192 hrs (8 days),1.58 ± 0.43 % dose/g
same,Biodistribution: Liver,[3]; 192 hrs (8 days),0.12 ± 0.02 % dose/g
same,Biodistribution: Lung,[3]; 192 hrs (8 days),0.09 ± 0.02 % dose/g
same,Biodistribution: Muscle,[3]; 192 hrs (8 days),0.03 ± 0.00 % dose/g
same,Biodistribution: PC3 tumor,[3]; 192 hrs (8 days),0.35 ± 0.03 % dose/g
same,Biodistribution: PIP PC3 tumor,[3]; 192 hrs (8 days),13.14 ± 2.57 % dose/g
same,Biodistribution: Pancreas,[3]; 192 hrs (8 days),0.03 ± 0.00 % dose/g
same,Biodistribution: Skin,[3]; 192 hrs (8 days),0.16 ± 0.03 % dose/g
same,Biodistribution: Spleen,[3]; 192 hrs (8 days),0.30 ± 0.07 % dose/g
same,Biodistribution: Stomach,[3]; 192 hrs (8 days),0.10 ± 0.09 % dose/g
same,Time of highest uptake in PIP PC3 tumors,"[3]; mouse, in vivo",48 h
same,Uptake in PC3 tumors (PSMA negative) versus PC-3 PIP tumors (PSMA positive),"[3]; mouse, in vivo",much lower
same,Stability of injected doses,[4],stable
